{
  "source": "patent US20090062255A1",
  "about": "“TUMOR-TARGETING EVALUATION METHODOLOGY AND COMPOUNDS RELATED THERETO” (THALLION PHARMACEUTICALS INC., priority 2007, published 2009)",
  "key": {"[1]": {"test_system": "human uterine sarcoma MES-SA", "test": "Growth inhibitory MTT assay, MES-SA", "assay_type": "cell-based", "settings": "72 hours, treated over control", "procedure": "Growth inhibitory activity of ECO-4601 (Compound 1) and other dibenzodiazepinone analogs was evaluated on a panel of 4 human tumor cell lines: the human uterine sarcoma MES-SA and its doxorubicin-resistant P-glycoprotein over-expressing variant, MES-SA/DX5 as well as non-aggressive and highly aggressive human breast cell lines, MCF-7 and MDA-MB-231, respectively. These four cell lines were obtained from the American Type Culture Collection (Manassas, Va.) and cultured in RPMI plus 10% fetal bovine serum (FBS) and maintained at 37° C. with 5% CO2.\nExponentially growing cells (5,000 cells per well time; cell number determined with a hemocytometer) were seeded in 96-well flat-bottom plates and allowed to grow overnight. Cells were then incubated for 72 hours with three different concentrations of ECO-4601 or analogs: 30,10, and 3 μM. The in vitro growth inhibitory activity was determined by a commercial MTT assay. All measurements were done in quadruplicate and each experiment was performed 2-3 times. The lower the value, the more cytotoxic is the compound."}, "[2]": {"test_system": "60 different human tumor cell lines", "test": "NCI in vitro screening, 60 human tumor cell lines", "assay_type": "cell-based", "settings": "for GI50: Homo sapiens", "description": "A study measuring the in vitro cytotoxic activity of Compound 1 was first performed by the NCI (National Cancer Institute, U.S. National Institutes of Health, Bethesda, Md., USA) against a panel of human cancer cell lines. This screen utilizes 60 different human tumor cell lines, representing cancers of the blood, skin, lung, colon, brain, ovary, breast, prostate, and kidney (More information available at: http://dtp.nci.nih.gov/branches/btb/ivclsp.html.) The compound was sent and tested on three occasions (Mar. 31, 2003; Dec. 1, 2003; Mar. 27, 2007)."}, "[3]": {"test": "ECO-4601 concentrations in plasma and tissues, rat C6 orthotopic brain tumors", "assay_type": "in vivo", "settings": "individual rats", "procedure": "Rat C6 glioma cells were purchased from the American Type Culture Collection (Manessa, Va.) and grown in Dulbecco's modified Eagle's medium (DMEM) supplemented with 10% FBS, 125 U/mL penicillin G, 125 μg/mL streptomycin sulfate, and 2.2 μg/mL amphotericin B (Fungizone). All culture reagents were obtained from Gibco BRL (Invitrogen Burlington, ON, Canada). Cultures were grown in monolayers and maintained at 37° C. in a humidified atmosphere of 5% CO2. Upon reaching confluency, spheroids were prepared using the hanging drop method previously described by Del Duca et al. ((2004) J. Neurooncol 67, p 295). Briefly, 20 μl drops of DMEM containing 15,000 cells each were suspended from the lids of culture dishes and the resulting aggregates were transferred to culture dishes base-coated with agar after 72 hours. The resulting spheroids were adequate for in vivo implantation after 48 hours of incubation on agar.\nMale, Sprague-Dawley rats (250-300 g) (Charles River Canada, St Constant, QC) were anesthetized with 50 mg/kg ketamine and 10 mg/kg xylazine. The right cortical surface in the parietal-occipital region was exposed by craniectomy using a high-powered drill (DREMEL, USA) and the underlying dura and its vessels were carefully removed under a surgical microscope. A piece of the cortex was removed to expose the underlying white matter and a single speroid containing rat C6 tumor cells was placed into the surgical defect. The craniectomy was covered with bone wax (Ethicon, Peterborough, Canada) and the overlying skin sutured. Following recovery from anesthesia, the animals were fed and had access to water ad libitum.\nFollowing completion of in vivo studies, animals were sacrificed by anesthetic overdose and decapitated. Brain, tumor, and liver were snap-frozen in liquid nitrogen and stored frozen (−70° C.±10° C.). For blood samples, each blood sample was collected into a K2-EDTA tube and kept on wet ice for a maximum of 30 minutes. Blood samples were centrifuged under refrigeration (2 to 8° C.) for 10 minutes at 1,500 g (RCF). A volume of 25 μL of aqueous 4% w/v L-ascorbic acid was added to a volume of 225 μL of rat plasma in a clean tube, and the samples were thoroughly mixed by inversion. A volume of 125 uL of the resulting mixture was transferred to a separate tube for bioanalysis, while the remaining mixture was maintained as a backup, and both the bioanalysis and back-up portions were frozen on dry ice and stored frozen (−70° C.±10° C.).\nRat plasma (50 μL) was mixed with 500 μL of acetone containing 100 ng/mL of the internal standard (Compound 2). The mixture was vortexed for 20 seconds, incubated 10 min at RT and centrifuged at 12,000×g for 10 minutes. The supernatants were transferred into HPLC injection vials and 20 μL were analyzed by tandem liquid chromatography/mass spectrometry. The chromatography was achieved on a Luna C18 column (30×4.6 mm, 5 μm particles; Phenomenex, Torrance, Calif.) with a mobile phase consisting of 100% methanol: 0.5% formic acid in water (85:15) at a flow rate of 1 mL/min. Flow was split 1:10 prior to introduction into the ESI source. The nebulization was assisted by and octagonal jet stream of nitrogen heated at […] and set at a flow of 4 L/min. The ion source voltage (ISV) was at 4000 V in positive mode, declustering potential (OR-QO) was set to 20 V, and the collision energy (Elab) was set to 25 V. The mass transition monitered for ECO-4601 and the internal standard were m/z 463→271 and 477→273, respectively. […]"}},
  "note": "Where “and” joins values, the source holds several entries; their conditions need not be identical. Identical values can stand only once. Like-named read-outs stand apart in the source and are kept apart here.",
  "data": [
    {"smiles": "CC(C)=CCC/C(C)=C/CC/C(C)=C/CN1C(=O)c2cccc(O)c2Nc2c(O)cc(O)cc21", "note": "[Compound 1, 10-farnesyl-4,6,8-trihydroxy-5,10-dihydrodibenzo[b,e][1,4]diazepin-11-one]", "values": [
      {"measurement": "% T/C at 10 μM", "setting": "[1]", "result": 78, "unit": "%"},
      {"measurement": "cytotoxic activity in NCI in vitro screening (in words)", "setting": "[2]; 60 cell lines", "result": "low micromolar range"},
      {"measurement": "GI50", "setting": "[2]; Breast carcinoma cell, breast carcinoma cell lines, read-out: GI50 range", "result": "1.4 to 16.3", "unit": "µM"},
      {"measurement": "GI50", "setting": "[2]; CNS (glioblastoma) cell lines, read-out: GI50 range", "result": "2 to 6.5", "unit": "µM"},
      {"measurement": "GI50", "setting": "[2]; Colon carcinoma cell, colon carcinoma cell lines, read-out: GI50 range", "result": "3 to 17.3", "unit": "µM"},
      {"measurement": "GI50", "setting": "[2]; Ovarian carcinoma cell, ovarian carcinoma cell lines, read-out: GI50 range", "result": "2.5 to 6.2", "unit": "µM"},
      {"measurement": "GI50", "setting": "[2]; leukemia cell lines, read-out: GI50 range", "result": "0.9 to 5", "unit": "µM"},
      {"measurement": "GI50", "setting": "[2]; melanoma cell lines, read-out: GI50 range", "result": "1.8 to 8.1", "unit": "µM"},
      {"measurement": "GI50", "setting": "[2]; non-small cell lung carcinoma cell lines, read-out: GI50 range", "result": "1.9 to 10.8", "unit": "µM"},
      {"measurement": "GI50", "setting": "[2]; prostate carcinoma cell lines, read-out: GI50", "result": "3.5 to 9.3", "unit": "µM"},
      {"measurement": "GI50", "setting": "[2]; renal carcinoma cell lines, read-out: GI50 range", "result": "2.9 to 14.5", "unit": "µM"},
      {"measurement": "Ratio Tumor/Brain", "setting": "[3]", "result": "10.1 and 2.1 and 5.2 and 11.30 and 3.5"},
      {"measurement": "Tumor", "setting": "[3]", "result": "2701 ng/g and 239 ng/g and 509 ng/g and 2891 ng/g and 1145 ng/g"},
      {"measurement": "Brain", "setting": "[3]; C6 orthotopic brain tumor", "result": "249 ng/g and 115 ng/g and 98 ng/g and 254 ng/g and 327 ng/g"},
      {"measurement": "Liver", "setting": "[3]; C6 orthotopic brain tumor", "result": "994 ng/g and 164 ng/g and 1083 ng/g and 2767 ng/g and 123 ng/g"},
      {"measurement": "Pasma ng/mL", "setting": "[3]; C6 orthotopic brain tumor", "result": "13,088 ng/mL and 2,657 ng/mL and 5,727 ng/mL and 10,212 ng/mL and 1,177 ng/mL"}
    ]}
  ]
}
